Measurements reported in patent US12391737B2, “Soluble NPY2 receptor agonists” (Boehringer Ingelheim International GmbH, priority 2020, dated 2025).

What was measured:
[1] = target: T1, Human Neuropeptide Y2 Receptor (Homo sapiens, UniProt P49146); assay: Radioligand binding competition assay (RLB); settings: Table 3, 125I-PYY(1-36) competition; read-out: Ki
T1 construct: purchased CHEMICON HTS066M
T1 sequence (P49146 1-381): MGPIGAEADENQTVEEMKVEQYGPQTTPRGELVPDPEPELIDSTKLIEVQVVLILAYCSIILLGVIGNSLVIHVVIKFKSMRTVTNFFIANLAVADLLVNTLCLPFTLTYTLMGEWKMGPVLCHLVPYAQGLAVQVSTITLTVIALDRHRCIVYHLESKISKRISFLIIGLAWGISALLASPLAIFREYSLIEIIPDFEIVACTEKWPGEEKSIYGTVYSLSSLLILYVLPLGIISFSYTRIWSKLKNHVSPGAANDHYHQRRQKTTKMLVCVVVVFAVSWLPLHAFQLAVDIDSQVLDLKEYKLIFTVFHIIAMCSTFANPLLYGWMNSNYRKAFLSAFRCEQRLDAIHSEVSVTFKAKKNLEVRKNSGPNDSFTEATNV
Procedure, shortened: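 Filtration competition binding on membranes from cells expressing the receptor, 0.5 μg protein/well, in 50 mM HEPES, 5 mM MgCl2, 1 mM CaCl2, pH 7.4, with 0.2% ovalbumin. Incubation ran 2 h at room temperature, followed by GF/C filtration and scintillation counting. IC50 came from nonlinear sigmoidal fits.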

Solubility determination = settings: for Sol6: pH 6; for Sol7: pH 7
Procedure, shortened: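 Solubility is derived from the ratio of reversed-phase peak areas, filtered sample over a control dissolved at 1 mg/ml in 50% acetonitrile. Peptides are agitated for 2 hours at room temperature in 0.1 M sodium diphosphate at pH 6.4 or 7.0, aiming at 10 mg/ml.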

Row | Compound | Ki [1] [nM] | Sol6 (Solubility determination) [mg/mL] | Sol7 (Solubility determination) [mg/mL]
1 | CC(C)CC(=O)N[C@@H](C)C(=O)N1CCC[C@H]1C(=O)N[C@@H](CCC(=O)O)C(=O)N[C@@H](CCCCNC(=O)CCCCCNC(=O)CC[C@H](NC(=O)CCCCCCCCCCCCCCCCC(=O)O)C(=O)O)C(=O)N1CCC[C@H]1C(=O)N[C@@H](CCC(=O)O)C(=O)N[C@@H](CCC(=O)O)C(=O)N[C@@H](CC(=O)O)C(=O)N[C@@H](C)C(=O)N[C@@H](CCC(=O)O)C(=O)N1CCC[C@H]1C(=O)N[C@@H](CCC(=O)O)C(=O)N[C@@H](CCC(=O)O)C(=O)N[C@@H](CC(C)C)C(=O)N[C@@H](CCC(N)=O)C(=O)N[C@@H](C)C(=O)N[C@@H](Cc1ccc(O)cc1)C(=O)N[C@@H](Cc1ccc(O)cc1)C(=O)N[C@H](C(=O)N[C@@H](CO)C(=O)N[C@@H](CC(C)C)C(=O)N[C@@H](CCCNC(=N)N)C(=O)N[C@@H](Cc1c[nH]cn1)C(=O)N[C@@H](Cc1ccc(O)cc1)C(=O)N[C@@H](Cc1ccc(O)cc1)C(=O)N[C@@H](CC(N)=O)C(=O)N[C@@H](Cc1c[nH]c2ccccc12)C(=O)N[C@@H](CC(C)C)C(=O)N[C@H](C(=O)N[C@@H](CCCNC(=N)N)C(=O)N[C@@H](CCC(N)=O)C(=O)N[C@@H](CCCNC(=N)N)C(=O)N[C@@H](Cc1ccc(O)cc1)C(N)=O)[C@@H](C)O)C(C)C [Compound 169, N{alpha-4}-(3-methylbutanoyl)-N{epsilon-7}-(6-[(4S)-4-carboxy-4-(17-carboxyheptadecanamido)butanamido]hexanoyl)-[4A,7K,9E,13E,18Q,19A,22V,28Y,30W,31L]-hPYY(4-36)] | 5.82 | 9.7 | 9.8
2 | CC(C)CC(=O)N[C@@H](C)C(=O)N1CCC[C@H]1C(=O)N[C@@H](CCC(=O)O)C(=O)N[C@@H](CCCCNC(=O)CCCCCNC(=O)CC[C@H](NC(=O)CCCCCCCCCCCCCCCCC(=O)O)C(=O)O)C(=O)N1CCC[C@H]1C(=O)N[C@@H](CCC(=O)O)C(=O)N[C@@H](CCC(=O)O)C(=O)N[C@@H](CC(=O)O)C(=O)N[C@@H](C)C(=O)N[C@H](C(=O)N1CCC[C@H]1C(=O)N[C@@H](CCC(=O)O)C(=O)N[C@@H](CCC(=O)O)C(=O)N[C@@H](CC(C)C)C(=O)N[C@@H](CCC(N)=O)C(=O)N[C@@H](CCCNC(=N)N)C(=O)N[C@@H](Cc1ccc(O)cc1)C(=O)N[C@@H](Cc1ccc(O)cc1)C(=O)N[C@H](C(=O)N1CCC[C@H]1C(=O)N[C@@H](CC(C)C)C(=O)N[C@@H](CCCNC(=N)N)C(=O)N[C@@H](Cc1c[nH]cn1)C(=O)N[C@@H](Cc1ccc(O)cc1)C(=O)N[C@@H](Cc1ccc(O)cc1)C(=O)N[C@@H](CC(N)=O)C(=O)N[C@@H](Cc1c[nH]c2ccccc12)C(=O)N[C@@H](CC(C)C)C(=O)N[C@H](C(=O)N[C@@H](CCCNC(=N)N)C(=O)N[C@@H](CCC(N)=O)C(=O)N[C@@H](CCCNC(=N)N)C(=O)N[C@@H](Cc1ccc(O)cc1)C(N)=O)[C@@H](C)O)C(C)C)[C@@H](C)O [Compound 87, N{alpha-4}-(3-methylbutanoyl)-N{epsilon-7}-(6-[(4S)-4-carboxy-4-(17-carboxyheptadecanamido)butanamido]hexanoyl)-[4A,7K,9E,13T,18Q,22V,23P,28Y,30W,31L]-hPYY(4-36)] | 22.4 | 9.7 | 9.7
3 | CC(C)CC(=O)N[C@@H](C)C(=O)N1CCC[C@H]1C(=O)N[C@@H](CCC(=O)O)C(=O)N[C@@H](CCCCNC(=O)CCCCCNC(=O)CC[C@H](NC(=O)CCCCCCCCCCCCCCCCC(=O)O)C(=O)O)C(=O)N1CCC[C@H]1C(=O)N[C@@H](CCC(=O)O)C(=O)N[C@@H](CCC(=O)O)C(=O)N[C@@H](CC(=O)O)C(=O)N[C@@H](C)C(=O)N[C@H](C(=O)N1CCC[C@H]1C(=O)N[C@@H](CCC(=O)O)C(=O)N[C@@H](CCC(=O)O)C(=O)N[C@@H](CCC(N)=O)C(=O)N[C@@H](CCC(N)=O)C(=O)N[C@@H](CCCNC(=N)N)C(=O)N[C@@H](Cc1ccc(O)cc1)C(=O)N[C@@H](Cc1ccc(O)cc1)C(=O)N[C@H](C(=O)N[C@@H](CO)C(=O)N[C@@H](CC(C)C)C(=O)N[C@@H](CCCNC(=N)N)C(=O)N[C@@H](Cc1c[nH]cn1)C(=O)N[C@@H](Cc1ccc(O)cc1)C(=O)N[C@@H](Cc1ccc(O)cc1)C(=O)N[C@@H](CC(N)=O)C(=O)N[C@@H](Cc1c[nH]c2ccccc12)C(=O)N[C@@H](CC(C)C)C(=O)N[C@H](C(=O)N[C@@H](CCCNC(=N)N)C(=O)N[C@@H](CCC(N)=O)C(=O)N[C@@H](CCCNC(=N)N)C(=O)N[C@@H](Cc1ccc(O)cc1)C(N)=O)[C@@H](C)O)C(C)C)[C@@H](C)O [Compound 134, N{alpha-4}-(3-methylbutanoyl)-N{epsilon-7}-(6-[(4S)-4-carboxy-4-(17-carboxyheptadecanamido)butanamido]hexanoyl)-[4A,7K,9E,13T,17Q,18Q,22V,28Y,30W,31L]-hPYY(4-36)] | 2.8 | 10.0 | 10.0
4 | CC(C)CC(=O)N[C@@H](C)C(=O)N1CCC[C@H]1C(=O)N[C@@H](C)C(=O)N[C@@H](CCCCNC(=O)CCCCCNC(=O)CC[C@H](NC(=O)CCCCCCCCCCCCCCCCC(=O)O)C(=O)O)C(=O)N1CCC[C@H]1C(=O)N[C@@H](CCC(=O)O)C(=O)N[C@@H](CCC(=O)O)C(=O)N[C@@H](CC(=O)O)C(=O)N[C@@H](C)C(=O)N[C@@H](CO)C(=O)N1CCC[C@H]1C(=O)N[C@@H](CCC(=O)O)C(=O)N[C@@H](CCC(=O)O)C(=O)N[C@@H](CO)C(=O)N[C@@H](CCC(N)=O)C(=O)N[C@@H](CCCNC(=N)N)C(=O)N[C@@H](Cc1ccc(O)cc1)C(=O)N[C@@H](Cc1ccc(O)cc1)C(=O)N[C@H](C(=O)N[C@@H](CO)C(=O)N[C@@H](CC(C)C)C(=O)N[C@@H](CCCNC(=N)N)C(=O)N[C@@H](Cc1c[nH]cn1)C(=O)N[C@@H](Cc1ccc(O)cc1)C(=O)N[C@@H](Cc1ccc(O)cc1)C(=O)N[C@@H](CC(N)=O)C(=O)N[C@@H](Cc1c[nH]c2ccccc12)C(=O)N[C@@H](CC(C)C)C(=O)N[C@H](C(=O)N[C@@H](CCCNC(=N)N)C(=O)N[C@@H](CCC(N)=O)C(=O)N[C@@H](CCCNC(=N)N)C(=O)N[C@@H](Cc1ccc(O)cc1)C(N)=O)[C@@H](C)O)C(C)C [Compound 149, N{alpha-4}-(3-methylbutanoyl)-N{epsilon-7}-(6-[(4S)-4-carboxy-4-(17-carboxyheptadecanamido)butanamido]hexanoyl)-[4A,6A,7K,9E,17S,18Q,22V,28Y,30W,31L]-hPYY(4-36)] | 3.97 | 8.7 | 10.0
5 | CC(C)CC(=O)N[C@@H](C)C(=O)N1CCC[C@H]1C(=O)N[C@@H](CCC(=O)O)C(=O)N[C@@H](CCCCNC(=O)CCCCCNC(=O)CC[C@H](NC(=O)CCCCCCCCCCCCCCCCC(=O)O)C(=O)O)C(=O)N1CCC[C@H]1C(=O)N[C@@H](CCC(=O)O)C(=O)N[C@@H](CCC(=O)O)C(=O)N[C@@H](CC(=O)O)C(=O)N[C@@H](C)C(=O)N[C@H](C(=O)N1CCC[C@H]1C(=O)N[C@@H](CCC(=O)O)C(=O)N[C@@H](CCC(=O)O)C(=O)N[C@@H](CC(C)C)C(=O)N[C@@H](CCC(N)=O)C(=O)N[C@@H](C)C(=O)N[C@@H](Cc1ccc(O)cc1)C(=O)N[C@@H](Cc1ccc(O)cc1)C(=O)N[C@H](C(=O)N[C@@H](CO)C(=O)N[C@@H](CC(C)C)C(=O)N[C@@H](CCCNC(=N)N)C(=O)N[C@@H](Cc1c[nH]cn1)C(=O)N[C@@H](Cc1ccc(O)cc1)C(=O)N[C@@H](Cc1ccc(O)cc1)C(=O)N[C@@H](CC(N)=O)C(=O)N[C@@H](Cc1c[nH]c2ccccc12)C(=O)N[C@@H](CC(C)C)C(=O)N[C@H](C(=O)N[C@@H](CCCNC(=N)N)C(=O)N[C@@H](CCC(N)=O)C(=O)N[C@@H](CCCNC(=N)N)C(=O)N[C@@H](Cc1ccc(O)cc1)C(N)=O)[C@@H](C)O)C(C)C)[C@@H](C)O [Compound 95, N{alpha-4}-(3-methylbutanoyl)-N{epsilon-7}-(6-[(4S)-4-carboxy-4-(17-carboxyheptadecanamido)butanamido]hexanoyl)-[4A,7K,9E,13T,18Q,19A,22V,28Y,30W,31L]-hPYY(4-36)] | 2.92 | 8.9 | 7.9
